ChEMBL document CHEMBL1201862, “PubChem BioAssay data set” (2004)
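A five-concentration, 48-hour dose response in 96-well plates underlies each endpoint, interpolated linearly between surrounding concentrations. Abbreviation: GI50, concentration required for 50% inhibition of growth.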 The source made the active and inactive calls. Rule as the data show it: active = GI50 up to about 1.1 µM and inactive = higher.

Tests used:
Test in all cases: NCI tumour cell line growth inhibition, 48 h
[1] = tested on: EKVX
[2] = tested on: T47D
[3] = tested on: OVCAR-8
[4] = tested on: MDA-N
[5] = tested on: SW-620
[6] = tested on: HL-60
[7] = tested on: A549
[8] = tested on: Hs-578T
[9] = tested on: HCT-15
[10] = tested on: SNB-75
[11] = tested on: UACC-257
[12] = tested on: SK-MEL-28
[13] = tested on: MCF7
[14] = tested on: ACHN
[15] = tested on: M14
[16] = tested on: NCI-H522
[17] = tested on: MOLT-4
[18] = tested on: LOX IMVI
[19] = tested on: RXF 393

Measured: GI50

C=C(C)C(=O)N1c2ccc(OC)cc2CC1C(=O)OCC (configuration not stated)
inactive: [1] > 100 µM | [2] 26.7 µM | [3] > 100 µM | [4] > 100 µM | [5] > 100 µM | [6] > 10 µM | [7] > 100 µM | [8] > 100 µM | [10] 45.2 µM | [11] > 100 µM | [12] > 100 µM | [13] > 100 µM | [14] > 100 µM | [15] > 100 µM | [16] > 100 µM | [17] > 100 µM
> 100 µM: [9]

CCN1C2=NCCN2S(=O)(=O)c2ccccc21
inactive: [1] > 100 µM | [2] > 100 µM | [3] > 100 µM | [4] > 100 µM | [5] > 100 µM | [6] > 100 µM | [7] > 100 µM | [8] > 100 µM | [11] > 100 µM | [18] > 100 µM | [19] > 100 µM | [12] > 100 µM | [13] > 100 µM | [14] > 100 µM | [15] > 100 µM | [16] 59 µM | [17] > 100 µM
> 100 µM: [9]

CCSCC(N)C(=O)O (configuration not stated)
inactive: [1] > 100 µM | [2] > 100 µM | [3] > 100 µM | [4] > 100 µM | [5] > 100 µM | [6] > 100 µM | [7] > 100 µM | [8] > 100 µM | [10] > 100 µM | [11] > 100 µM | [18] > 100 µM | [19] > 100 µM | [12] > 100 µM | [13] > 100 µM | [14] > 100 µM | [15] > 100 µM | [16] > 100 µM
> 100 µM: [9]

COc1ccc(C)cc1NC(=S)N/N=C/c1ccc(SC)cc1
inactive: [2] 60.7 µM | [3] 57.1 µM | [4] 36.3 µM | [5] 53.8 µM | [6] 31.8 µM | [7] > 100 µM | [8] > 100 µM | [10] > 100 µM | [18] 59.6 µM | [19] 58.5 µM | [12] 86.7 µM | [13] > 100 µM | [14] > 100 µM | [15] 25.5 µM | [16] 82.2 µM | [17] 45.4 µM
39.6 µM: [9]

CN(C)CCNC(=O)Cn1ccc(=O)c2ccc([N+](=O)[O-])cc21
73.8 µM: [9]
inactive: [1] > 100 µM | [2] > 100 µM | [4] > 100 µM | [5] > 100 µM | [6] > 100 µM | [7] > 100 µM | [8] > 100 µM | [11] > 100 µM | [18] > 100 µM | [19] > 100 µM | [12] > 100 µM | [13] > 100 µM | [14] > 100 µM | [15] > 100 µM | [16] > 100 µM | [17] > 100 µM

Cc1nc(-c2ccc(/N=C/c3ccc(N(CCOS(C)(=O)=O)CCOS(C)(=O)=O)cc3C)cc2)cs1
inactive: [2] 7.23 µM | [3] 51.9 µM | [4] 46 µM | [5] 67.9 µM | [6] 3.94 µM | [7] 11.3 µM | [8] 88.3 µM | [10] 40.9 µM | [11] 22.8 µM | [18] 19.4 µM | [19] 25.1 µM | [12] 97.9 µM | [13] 2.44 µM | [14] 3.82 µM | [15] 60 µM | [16] 24.3 µM | [17] 2.09 µM
77.6 µM: [9]

O=C1/C(=C/c2ccc(Br)s2)NC(=S)N1CN1CCOCC1
30.2 µM: [9]
inactive: [1] 8.38 µM | [2] 49.5 µM | [3] 61.5 µM | [4] 52 µM | [5] 36.4 µM | [6] 23.9 µM | [8] 65.3 µM | [10] 85.5 µM | [11] 66.8 µM | [18] 24.5 µM | [19] 21.3 µM | [12] 40.4 µM | [13] 25.1 µM | [14] 48 µM | [16] 64 µM | [17] 32.7 µM

N=C(N)NS(=O)(=O)c1ccc(/N=N/c2c(O)c(C(=O)O)cc3ccccc23)cc1
inactive: [1] > 100 µM | [2] > 100 µM | [3] > 100 µM | [4] > 100 µM | [5] > 100 µM | [6] > 100 µM | [7] > 100 µM | [8] > 100 µM | [10] > 100 µM | [11] > 100 µM | [19] > 100 µM | [12] > 100 µM | [13] > 100 µM | [14] > 100 µM | [15] > 100 µM | [16] > 100 µM | [17] > 100 µM
> 100 µM: [9]

O/N=C1/CCCc2nonc21
> 100 µM: [9]
inactive: [1] > 100 µM | [2] > 100 µM | [3] > 100 µM | [4] > 100 µM | [5] > 100 µM | [6] > 100 µM | [7] > 100 µM | [8] > 100 µM | [10] > 100 µM | [11] > 100 µM | [18] > 100 µM | [19] > 100 µM | [12] > 100 µM | [13] > 100 µM | [14] > 100 µM | [15] > 100 µM | [17] > 100 µM

CSc1nc(SC)c2c(C)cn(Cc3ccccc3)c2n1
70.1 µM: [9]
inactive: [1] > 100 µM | [2] 33.9 µM | [3] > 100 µM | [4] 30.3 µM | [5] > 100 µM | [6] 34 µM | [7] > 100 µM | [8] > 100 µM | [10] 79.6 µM | [18] 60.4 µM | [12] > 100 µM | [13] 45.4 µM | [14] > 100 µM | [15] > 100 µM | [16] 98.4 µM | [17] 39 µM

Cc1cc2nc(N3C(=O)/C(=C/c4ccccc4S)N=C3c3ccccc3)sc2cc1C
32.7 µM: [9]
inactive: [1] 27 µM | [2] 54.1 µM | [3] 46.5 µM | [4] 11.6 µM | [5] 37.5 µM | [6] 30.1 µM | [7] 36.6 µM | [8] 39.2 µM | [10] 32.6 µM | [11] 23.3 µM | [18] 29.2 µM | [19] 29.3 µM | [12] 54.2 µM | [13] 20 µM | [14] 32.7 µM | [15] 34 µM | [17] 15.4 µM

CCC(CCN)(CCN)[N+](=O)[O-]
inactive: [1] > 100 µM | [2] > 100 µM | [3] > 100 µM | [4] > 100 µM | [5] > 100 µM | [6] > 100 µM | [7] > 100 µM | [8] > 100 µM | [10] > 100 µM | [11] > 100 µM | [19] > 100 µM | [13] > 100 µM | [15] > 100 µM | [16] 58.3 µM | [17] > 100 µM
> 100 µM: [9]

O=C(CN1CCN(c2ccccn2)CC1)N1CCCn2c1nc1ccccc1c2=O
> 100 µM: [9]
inactive: [1] > 100 µM | [2] > 100 µM | [3] > 100 µM | [4] > 100 µM | [5] > 100 µM | [6] > 100 µM | [7] > 100 µM | [8] > 100 µM | [10] > 100 µM | [11] > 100 µM | [18] > 100 µM | [13] > 100 µM | [14] > 100 µM | [15] > 100 µM | [16] > 100 µM | [17] > 100 µM

COc1cccc(/C=C2\N=C(c3ccccc3)OC2=O)c1
inactive: [1] > 100 µM | [2] > 100 µM | [3] 64.4 µM | [4] 47.2 µM | [5] > 100 µM | [6] 10.7 µM | [7] > 100 µM | [8] 22.5 µM | [10] 16.1 µM | [11] > 100 µM | [18] 26.4 µM | [19] > 100 µM | [12] > 100 µM | [13] > 100 µM | [14] > 100 µM | [15] 81.3 µM | [16] 12.3 µM
34 µM: [9]

OCCCCCNc1nc(O)c2[nH]cnc2n1
> 100 µM: [9]
inactive: [1] > 100 µM | [2] > 100 µM | [3] > 100 µM | [4] > 100 µM | [5] > 100 µM | [6] > 100 µM | [7] > 10 µM | [8] 90.8 µM | [10] > 100 µM | [11] > 100 µM | [18] > 100 µM | [19] > 10 µM | [13] > 10 µM | [14] > 100 µM | [15] > 100 µM | [16] > 100 µM | [17] > 100 µM

OC(c1ccc(Cl)cc1)(c1ccc(Cl)cc1)c1cncnc1
inactive: [2] 28.2 µM | [3] 21.4 µM | [4] 19.2 µM | [5] 21.1 µM | [6] > 10 µM | [8] 25.3 µM | [10] 21.2 µM | [11] 19.2 µM | [18] 23.2 µM | [19] 13.4 µM | [12] 18.7 µM | [13] 25.9 µM | [15] 16.7 µM | [17] 14.8 µM
19 µM: [9]
